Patent US10745382B2 (BRISTOL-MYERS SQUIBB COMPANY, priority 2015, dated 2020)

Molecular target: T1, PD-1/PD-L1 (Homo sapiens, UniProt Q9NZQ7)
T1 construct: made in house; host or cells: HEK293T
Experiment: PD-1/PD-L1 Homogenous Time-Resolved Fluorescence (HTRF) binding assay
Conditions: PD-L1-His 10 nM, PD-1-Ig 20 nM; value given as range class; read-out: Range or IC50
Summary of the method: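 Read-out is time-resolved FRET between europium cryptate-labelled anti-Ig (1 nM final) and APC-labelled anti-His (20 nM final), both dispensed onto the binding mix. Assay buffer: dPBS containing 0.1% bovine serum albumin and 0.05% Tween-20.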

T1 sequence (Q9NZQ7 with tags, fused parts or gaps): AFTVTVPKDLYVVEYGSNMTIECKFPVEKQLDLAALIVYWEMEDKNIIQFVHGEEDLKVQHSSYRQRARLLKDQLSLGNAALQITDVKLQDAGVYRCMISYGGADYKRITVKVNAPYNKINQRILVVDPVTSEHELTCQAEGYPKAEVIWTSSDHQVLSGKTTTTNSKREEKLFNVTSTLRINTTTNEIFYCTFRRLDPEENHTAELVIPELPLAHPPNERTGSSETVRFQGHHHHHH

Row | Structure (SMILES) | IC50
1 | Cc1c(COc2cc(OCc3cncc(C#N)c3)c(CN3CCCC[C@H]3C(=O)O)cc2Cl)cccc1-c1cccc(OCCC(=O)N2CC[C@@H](O)C2)c1 [Example 1011, (S)-1-(5-chloro-2-((5-cyanopyridin-3-yl)methoxy)-4-((3′-(3-((R)-3-hydroxypyrrolidin-1-yl)-3-oxopropoxy)-2-methyl-[1,1′-biphenyl]-3-yl)methoxy)benzyl)piperidine-2-carboxylic Acid] | 100 to 2000 nM
2 | Cc1cc(OCCCCN2CC[C@@H](O)C2)ccc1-c1cccc(COc2cc(OCc3cncc(C#N)c3)c(CN3CCCC[C@H]3C(=O)O)cc2Cl)c1C [Example 1093, (S)-1-(5-chloro-2-((5-cyanopyridin-3-yl)methoxy)-4-((4′-(4-((R)-3-hydroxypyrrolidin-1-yl)butoxy)-2,2′-dimethyl-[1,1′-biphenyl]-3-yl)methoxy)benzyl)piperidine-2-carboxylic Acid] | 0.21 to 10 nM
3 | Cc1c(COCCN2CC[C@@H](O)C2)cccc1-c1cccc(COc2cc(OCc3cncc(C#N)c3)c(CNC3(C(=O)O)CC3)cc2Cl)c1C [Example 4124, (R)-1-((5-chloro-2-((5-cyanopyridin-3-yl)methoxy)-4-((3′-((2-(3-hydroxypyrrolidin-1-yl)ethoxy)methyl)-2,2′-dimethyl-[1,1′-biphenyl]-3-yl)methoxy)benzyl)amino)cyclopropane-1-carboxylic Acid] | 0.21 to 10 nM
4 | Cc1cc(COc2cc(OCc3cncc(C#N)c3)c(CN[C@](C)(CO)C(=O)O)cc2Cl)c(C)c(-c2cccc(OCCCN3CC[C@@H](O)C3)c2C)c1 [Example 3026, (R)-2-((5-chloro-2-((5-cyanopyridin-3-yl)methoxy)-4-((3′-(3-((R)-3-hydroxypyrrolidin-1-yl)propoxy)-2,2′,5-trimethyl-[1,1′-biphenyl]-3-yl)methoxy)benzyl)amino)-3-hydroxy-2-methylpropanoic Acid, 2TFA] | 0.21 to 10 nM
5 | CCN(CC)C(=O)c1cccc(-c2cccc(COc3cc(OCc4cncc(C#N)c4)c(CN4C[C@H](O)C[C@H]4C(=O)O)cc3Cl)c2C)c1C [Example 4042, (2S,4R)-1-(5-chloro-2-((5-cyanopyridin-3-yl)methoxy)-4-((3′-(diethylcarbamoyl)-2,2′-dimethyl-[1,1′-biphenyl]-3-yl)methoxy)benzyl)-4-hydroxypyrrolidine-2-carboxylic Acid] | 100 to 2000 nM
6 | Cc1c(COc2cc(OCc3cncc(S(C)(=O)=O)c3)c(CNC(C)(CO)CO)cc2Cl)cccc1-c1cccc(OCCCN2CC[C@@H](O)C2)c1Cl [Example 1532, (R)-2-((5-chloro-4-((2′-chloro-3′-(3-(3-hydroxypyrrolidin-1-yl)propoxy)-2-methyl-[1,1′-biphenyl]-3-yl)methoxy)-2-((5-(methylsulfonyl)pyridin-3-yl)methoxy)benzyl)amino)-2-methylpropane-1,3-diol] | 0.21 to 10 nM
7 | Cc1c(COc2cc(OCc3cncc(C#N)c3)c(CNC(C)(CO)CO)cc2Cl)cccc1-c1cccc(OCCCN2CCC(CO)CC2)c1C [Example 2288, 5-((4-chloro-2-(((1,3-dihydroxy-2-methylpropan-2-yl)amino)methyl)-5-((3′-(3-(4-(hydroxymethyl)piperidin-1-yl)propoxy)-2,2′-dimethyl-[1,1′-biphenyl]-3-yl)methoxy)phenoxy)methyl)nicotinonitrile] | 0.21 to 10 nM
8 | Cc1c(COCCN2CC[C@@H](O)C2)cccc1-c1cccc(COc2cc(OCc3cncc(C#N)c3)c(CN(C)[C@@H](CO)C(=O)O)cc2Cl)c1C [Example 4130, N-(5-chloro-2-((5-cyanopyridin-3-yl)methoxy)-4-((3′-((2-((R)-3-hydroxypyrrolidin-1-yl)ethoxy)methyl)-2,2′-dimethyl-[1,1′-biphenyl]-3-yl)methoxy)benzyl)-N-methyl-L-serine] | 0.21 to 10 nM
9 | CCOC(=O)C1(CO)CCN(CCCOc2cccc(-c3cccc(COc4cc(OCc5cncc(S(C)(=O)=O)c5)c(CN[C@](C)(CO)C(=O)O)cc4Cl)c3C)c2C)C1 (stereo partly drawn) [Example 1044, (2R)-2-((5-chloro-4-((3′-(3-(3-(ethoxycarbonyl)-3-(hydroxymethyl)pyrrolidin-1-yl)propoxy)-2,2′-dimethyl-[1,1′-biphenyl]-3-yl)methoxy)-2-((5-(methylsulfonyl)pyridin-3-yl)methoxy)benzyl)amino)-3-hydroxy-2-methylpropanoic Acid] | 0.21 to 10 nM
10 | CCCC[C@H](NCc1cc(Cl)c(OCc2cccc(-c3cccc(OCCCN4CC[C@@H](O)C4)c3C)c2C)cc1OCc1cncc(C#N)c1)C(=O)O [Example 4151, (S)-2-((5-chloro-2-((5-cyanopyridin-3-yl)methoxy)-4-((3′-(3-((R)-3-hydroxypyrrolidin-1-yl)propoxy)-2,2′-dimethyl-[1,1′-biphenyl]-3-yl)methoxy)benzyl)amino)hexanoic Acid] | 0.21 to 10 nM
11 | C[C@](CO)(NCc1cc(Cl)c(OCc2cccc(-c3cccc(OCCCN4CCCCC4)c3Cl)c2Cl)cc1OCc1cncc(C#N)c1)C(=O)O [Example 2058, (R)-2-((5-chloro-2-((5-cyanopyridin-3-yl)methoxy)-4-((2,2′-dichloro-3′-(3-(piperidin-1-yl)propoxy)-[1,1′-biphenyl]-3-yl)methoxy)benzyl)amino)-3-hydroxy-2-methylpropanoic Acid] | 0.21 to 10 nM

More lines, now with the values ahead:

Row | IC50 | Structure (SMILES)
12 | 0.21 to 10 nM | Cc1c(COc2cc(OCc3cncc(C#N)c3)c(CN[C@@](C)(CO)C(=O)O)cc2Cl)cccc1-c1cccc(OCCCN2CCC(O)C2)c1C#N (stereo in doubt) [Example 3008, (S)-2-((5-chloro-4-((2′-cyano-3′-(3-((R)-3-hydroxypyrrolidin-1-yl)propoxy)-2-methyl-[1,1′-biphenyl]-3-yl)methoxy)-2-((5-cyanopyridin-3-yl)methoxy)benzyl)amino)-3-hydroxy-2-methylpropanoic Acid]
13 | 0.21 to 10 nM | CC(=O)N[C@H]1CCN(CCCOc2cccc(-c3cccc(COc4cc(OCc5cncc(C#N)c5)c(CNC(CO)CO)cc4Cl)c3Cl)c2C)C1 [Example 2311, (S)—N-(1-(3-((2′-chloro-3′-((2-chloro-5-((5-cyanopyridin-3-yl)methoxy)-4-(((1,3-dihydroxypropan-2-yl)amino)methyl)phenoxy)methyl)-2-methyl-[1,1′-biphenyl]-3-yl)oxy)propyl)pyrrolidin-3-yl)acetamide]
14 | 0.21 to 10 nM | Cc1c(COc2cc(OCc3cncc(C#N)c3)c(CN3CCCC[C@H]3C(=O)O)cc2Cl)cccc1-c1cccc(OCCCN(C)C[C@H](O)CO)c1C [Example 2332, (S)-1-(5-chloro-2-((5-cyanopyridin-3-yl)methoxy)-4-((3′-(3-(((S)-2,3-dihydroxypropyl)(methyl)amino)propoxy)-2,2′-dimethyl-[1,1′-biphenyl]-3-yl)methoxy)benzyl)piperidine-2-carboxylic Acid]
15 | 0.21 to 10 nM | Cc1c(COc2cc(OCc3cncc(C#N)c3)c(CN3CCCC[C@H]3C(=O)O)cc2Cl)cccc1-c1cccc(OCCCNCC(O)c2ccccn2)c1C (stereo partly drawn) [Example 2222, (2S)-1-(5-chloro-2-((5-cyanopyridin-3-yl)methoxy)-4-((3′-(3-(2-hydroxy-2-(pyridin-2-yl)ethylamino)propoxy)-2,2′-dimethylbiphenyl-3-yl)methoxy)benzyl)piperidine-2-carboxylic Acid]
16 | 0.21 to 10 nM | Cc1c(COc2cc(OCc3cncc(C#N)c3)c(CN3CCN(C)C(=O)C3)cc2Cl)cccc1-c1cccc(OCCCN2CC[C@@H](O)C2)c1C [Example 2330, (R)-5-((4-chloro-5-((3′-(3-(3-hydroxypyrrolidin-1-yl)propoxy)-2,2′-dimethyl-[1,1′-biphenyl]-3-yl)methoxy)-2-((4-methyl-3-oxopiperazin-1-yl)methyl)phenoxy)methyl)nicotinonitrile]
17 | 0.21 to 10 nM | Cc1c(COc2cc(OCc3cncc(C#N)c3)c(CN3CCCC[C@H]3C(=O)O)cc2Cl)cccc1-c1cccc(OCCCN2CCCCC2CO)c1C (stereo partly drawn) [Example 2202, (2S)-1-(5-chloro-2-((5-cyanopyridin-3-yl)methoxy)-4-((3′-(3-(2-(hydroxymethyl)piperidin-1-yl)propoxy)-2,2′-dimethylbiphenyl-3-yl)methoxy)benzyl)piperidine-2-carboxylic Acid]
18 | 0.21 to 10 nM | N#Cc1cncc(COc2cc(OCc3cccc(-c4cccc(OCCCN5CC[C@@H](O)C5)c4Cl)c3Cl)c(Cl)cc2CN2CCCC[C@H]2C(=O)O)c1 [Example 2106, (S)-1-(5-chloro-2-((5-cyanopyridin-3-yl)methoxy)-4-((2,2′-dichloro-3′-(3-((R)-3-hydroxypyrrolidin-1-yl)propoxy)-[1,1′-biphenyl]-3-yl)methoxy)benzyl)piperidine-2-carboxylic Acid]
19 | 0.21 to 10 nM | Cc1c(COc2cc(OCc3cncc(C#N)c3)c(CN3CC[C@@H](O)C3)cc2Cl)cccc1-c1cccc(OCCCN2CC[C@@H](O)C2)c1Cl [Example 2001, 5-((4-chloro-5-((2′-chloro-3′-(3-((R)-3-hydroxypyrrolidin-1-yl)propoxy)-2-methyl-[1,1′-biphenyl]-3-yl)methoxy)-2-(((R)-3-hydroxypyrrolidin-1-yl)methyl)phenoxy)methyl)nicotinonitrile]
20 | 0.21 to 10 nM | Cc1c(OCCCN2CC[C@@H](O)C2)cccc1-c1cccc(COc2cc(OCC#N)c(CNC(CO)CO)cc2Cl)c1Cl [Example 2314, (R)-2-(4-chloro-5-((2-chloro-3′-(3-(3-hydroxypyrrolidin-1-yl)propoxy)-2′-methyl-[1,1′-biphenyl]-3-yl)methoxy)-2-(((1,3-dihydroxypropan-2-yl)amino)methyl)phenoxy)acetonitrile]
21 | 0.21 to 10 nM | Cc1c(OCCCN2CC[C@@H](O)C2)cccc1-c1c(Cl)ccc(COc2cc(OCc3cncc(C#N)c3)c(CNC(C)(CO)CO)cc2Cl)c1Cl [Example 2093, 5-((4-chloro-5-((2,6-dichloro-3′-(3-((R)-3-hydroxypyrrolidin-1-yl)propoxy)-2′-methyl-[1,1′-biphenyl]-3-yl)methoxy)-2-(((1,3-dihydroxy-2-methylpropan-2-yl)amino)methyl)phenoxy)methyl)nicotinonitrile]
